How the values were obtained:
[1] = biological target: FABP7 (Homo sapiens (Human), UniProt O15540); experiment: FABP7 fluorescent probe displacement binding assay; conditions: average ± S.E. of at least three independent experiments
[2] = test system: PC-3 (human metastatic prostate cancer) cells; experiment: Cytotoxicity (MTT) assay, PC-3 (Example 5); assay type: cell-based; conditions: 72-hour incubation, 1% FBS, read-out: PC3 IC50
[3] = biological target: FABP5 (Homo sapiens (Human), UniProt Q01469); experiment: FABP5 fluorescent probe displacement binding assay; conditions: for Ki: average ± S.E. of at least three independent experiments; for FABP3 Ki/FABP5 Ki: selectivity ratio FABP3 over FABP5
Sequence of FABP5 (Q01469 whole entry): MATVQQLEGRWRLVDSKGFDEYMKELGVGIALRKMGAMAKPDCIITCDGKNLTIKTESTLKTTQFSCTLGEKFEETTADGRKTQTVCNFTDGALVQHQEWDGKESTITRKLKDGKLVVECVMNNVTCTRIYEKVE

[4] = test system: WI-38 (human normal lung fibroblast) cells; experiment: Cytotoxicity (MTT) assay, WI-38 (Example 5); assay type: cell-based; conditions: 72-hour incubation, 1% FBS
[5] = test system: HepG2 (human liver cancer) cells; experiment: Cytotoxicity (MTT) assay, HepG2 (Example 5); assay type: cell-based; conditions: 72-hour incubation, 1% FBS
[6] = biological target: FABP3 (Homo sapiens (Human), UniProt P05413); experiment: FABP3 fluorescent probe displacement binding assay; conditions: average ± S.E. of at least three independent experiments
Sequence of FABP3 (P05413 whole entry): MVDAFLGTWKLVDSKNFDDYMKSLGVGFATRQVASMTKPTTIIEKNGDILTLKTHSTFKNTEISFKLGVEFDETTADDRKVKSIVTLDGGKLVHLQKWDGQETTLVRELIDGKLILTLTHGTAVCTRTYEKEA

Sequence of FABP7 (O15540 whole entry): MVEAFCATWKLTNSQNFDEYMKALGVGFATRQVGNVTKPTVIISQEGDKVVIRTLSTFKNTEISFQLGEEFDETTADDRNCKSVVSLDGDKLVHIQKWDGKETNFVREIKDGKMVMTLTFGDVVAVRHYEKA

| Ki [1] [µM] | Ki [3] [µM] | FABP3 Ki/FABP5 Ki [3] | Ki [6] [µM] | Compound | IC50 [2] [µM] | IC50 [4] [µM] | IC50 [5] [µM] |
| --- | --- | --- | --- | --- | --- | --- | --- |
| 2.25 ± 0.13 | 1.56 ± 0.19 | 1.8 | 2.79 ± 0.85 | COc1ccccc1C1[C@@H](C(=O)O)[C@@H](c2ccccc2OC)[C@@H]1C(=O)Oc1cccc(-c2ccc3c(c2)OCCO3)c1 (mixture of isomers) [Compound 1m] | 7.25 | 49.5 | 11.2 |
| 0.91 ± 0.03 | 0.41 ± 0.15 | 9.8 | 4.02 ± 1.04 | COc1ccccc1C1[C@@H](C(=O)O)[C@@H](c2ccccc2OC)[C@@H]1C(=O)Oc1cccc(-c2cccc3c2OCCO3)c1 (mixture of isomers) [Compound 1g, (±)-α-3-[3-(2,3-dihydrobenzo[b][1,4]dioxin-5-yl)phenoxycarbonyl]-2,4-di(2-methoxyphanyl)cyclobutane-1-carboxylic acid] | 4.53 | 49.8 | 8.87 |
| 0.86 ± 0.04 | 5.08 ± 0.62 | 1.5 | 7.42 ± 1.38 | O=C(O)[C@@H]1[C@@H](c2ccccc2)[C@H](C(=O)OCc2cccc3ccccc23)[C@H]1c1ccccc1 [Compound 3f, ε-2,4-diphenyl-3-(napthylen1-yl)methoxycarbonylcyclobutane-1-carboxylic acid] | 0.95 | 1.6 | 1.26 |
| 0.99 ± 0.53 | 1.03 ± 0.11 | 2.2 | 2.28 ± 0.36 | COc1ccccc1C1[C@@H](C(=O)O)[C@@H](c2ccccc2OC)[C@@H]1C(=O)Oc1cccc(-c2ccc(F)cc2)c1 (mixture of isomers) [Compound 1e, (±)-α-2,4-di (2-methoxyphenyl)-3-[3-(4-fluorophenyl)phenoxycarbonyl]cyclobutane-1-carboxylic acid] | 6.79 | 27.3 | 9.41 |
| 1.36 ± 0.23 | 1.59 ± 0.24 | 0.13 | 0.21 ± 0.09 | COc1ccccc1[C@H]1[C@H](C(=O)O)[C@H](c2ccccc2OC)[C@H]1C(=O)Oc1ccccc1-c1ccccc1 (racemic) [Compound 1o, (±)-α-3-(1,1′-biphenyl-2-yloxycarbonyl)-2,4-di (2-methoxyphenyl)cyclobutane-1-carboxylic acid] | 8.69 | > 100 | 9.43 |
| 8.04 ± 0.71 | 2.15 ± 0.17 | 24.5 | 52.6 ± 8.62 | COc1ccccc1[C@H]1[C@H](C(=O)O)[C@H](c2ccccc2OC)[C@H]1C(=O)OCc1cccc2ccccc12 (racemic) [Compound 1q, (±)-α-2,4-bis(2-methoxyphenyl)-3-(naphthalen-1-ylmethoxycarbonyl)cyclobutane-1-carboxylic acid] | 11.3 | 20.3 | 12.4 |
| 0.26 ± 0.09 | 1.59 ± 0.11 | 0.8 | 1.28 ± 0.28 | COc1ccccc1[C@@H]1C(C(=O)O)[C@@H](c2ccccc2OC)C1C(=O)Oc1ccccc1-c1ccc2c(c1)OCO2 (mixture of isomers) [Compound 1n, (±)-α-3-[2-(bnzo[d][1,3]dioxol-5-yl)phenoxycarbonyl]-2,4-di (2-methoxyphenyl)cyclobutane-1-carboxylic acid] | 20.7 | 59.4 | 23.5 |
| 0.7 ± 0.03 | 0.74 ± 0.06 | 10.9 | 8.11 ± 1.67 | O=C1CCc2cc(-c3cccc(OC(=O)[C@@H]4C(c5ccccc5)[C@@H](C(=O)O)[C@H]4c4ccccc4)c3)ccc2N1 (mixture of isomers) [Compound 1h, (±)-α-2,4-diphenyl-3-[3-(2-oxo-1,2,3,4-tetrahydroquinolin-6-yl)phenoxycarbonyl]cyclobutane-1-carboxylic acid] | 4.93 | 24 | 7.89 |
